Data from EPA's ToxRefDB 2.

Assays:
rat [1] = conditions: Developmental neurotoxicity study; sprague dawley; Injection; Intraperitoneal; dose end: 112 PND; group: cannot be grouped; developmental / developmental malformation / bone / kinked + developmental / offspring survival late / [other] / [other] + reproductive / …
rat [2] = conditions: Multigenerational reproductive toxicity study, sprague dawley, Oral, Feed, dose end: 2 generation
rabbit [3] = conditions: Prenatal developmental toxicity study, new zealand white, Oral, Gavage/Intubation, dose end: 19 GD
dog [4] = conditions: Chronic toxicity, beagle, Oral, Capsule, dose end: 52 week, group: systemic
dog [5] = conditions: Subchronic oral toxicity in nonrodent, beagle, Capsule, dose end: 13 week, group: systemic
rat [6] = conditions: Combined chronic toxicity/carcinogenicity, sprague dawley, Oral, Feed, dose end: 2 year, group: systemic
mouse = conditions: Carcinogenicity, cd1, Oral, Feed, dose end: 18 month, group: systemic
rat [7] = conditions: Subchronic oral toxicity in rodents, sprague dawley, Feed, dose end: 13 week, group: systemic, systemic / in life observation / body weight / body weight gain + systemic / organ weight / kidney / relative to body weight
rabbit [8] = conditions: Prenatal developmental toxicity study, other, Oral, Gavage/Intubation, dose end: 18 GD
rat [9] = conditions: Subchronic oral toxicity in rodents, fischer, Feed, dose end: 90 day, group: systemic, systemic / pathology microscopic / stomach / erosion + systemic / pathology microscopic / stomach / hyperkeratosis + systemic / pathology …
rat [10] = conditions: Prenatal developmental toxicity study, sprague dawley, Oral, Gavage/Intubation, dose end: 15 GD
[11] = group: offspring, developmental / offspring survival late / viability index / viability index + developmental / offspring survival late / lactation index / …
[12] = group: offspring, developmental / offspring survival late / viability index / viability index + systemic / in life observation / body weight / offspring (pup…
[13] = group: parental, systemic / in life observation / body weight / body weight + systemic / in life observation / body weight / body weight gain + systemic / …
[14] = group: developmental, developmental / developmental malformation / bone / unossified + developmental / developmental malformation / brain / hydrocephalus + …
[15] = group: maternal, reproductive / reproductive performance / aborted / aborted + systemic / in life observation / body weight / body weight gain + systemic / …
[16] = systemic / pathology microscopic / liver / pigmentation + systemic / hematology / erythrocyte (rbc) count differential / erythrocyte (rbc…
[17] = systemic / pathology microscopic / liver / pigmentation + systemic / pathology microscopic / epididymis / inflammation + systemic / …
[18] = systemic / pathology microscopic / thymus / involution + systemic / clinical chemistry / alanine aminotransferase (alt/sgpt) / alanine …
[19] = systemic / pathology microscopic / thymus / involution + systemic / pathology microscopic / epididymis / reduced spermatogenesis + systemic…
[20] = systemic / pathology gross / liver / foci
[21] = systemic / in life observation / mortality / mortality + systemic / pathology microscopic / bone marrow / hyperplasia + systemic / pathology…
[22] = systemic / organ weight / brain / relative to body weight
[23] = group: developmental, developmental / developmental malformation / bone / branched + developmental / developmental malformation / bone / full supernumerary
[24] = group: maternal, systemic / in life observation / body weight / body weight gain + systemic / in life observation / food consumption / food consumption
[25] = group: developmental, developmental / developmental malformation / bone / [other] + developmental / developmental malformation / kidney / dilated renal pelvis + …
[26] = group: maternal, systemic / in life observation / body weight / body weight gain + systemic / in life observation / food consumption / food consumption + …

Which results are given for O=c1[nH]c(=O)n([C@H]2C[C@H](O)[C@@H](CO)O2)cc1Br [5-Bromo-2'-deoxyuridine]?
LEL (rat [1]): 50 mg/kg/day; LOAEL (rat [1]): > 100 mg/kg/day; NEL (rat [1]): < 50 mg/kg/day; NOAEL (rat [1]): ≥ 100 mg/kg/day

Which LEL (rat [2]; [11]) does the source give for CCc1c(C(=O)[O-])c(=O)cnn1-c1ccc(Cl)cc1.[K+] [Clofencet-potassium] here?
The LEL was 393 mg/kg/day.

And the LOAEL (rat [2]; [11])?
The LOAEL was 393 mg/kg/day.

What about the NEL (rat [2]; [12]) of the same compound?
Its NEL is 38 mg/kg/day.

And the NOAEL (rat [2]; [12])?
The NOAEL was 38 mg/kg/day.

And the LEL (rat [2]; [13])?
Its LEL is 1600 mg/kg/day.

What about the LOAEL (rat [2]; [13]) of the same compound?
Its LOAEL is 1600 mg/kg/day.

What about the NEL (rat [2]; [13]) of the same compound?
The NEL was 393 mg/kg/day.

And the NOAEL (rat [2]; [13])?
Its NOAEL is 393 mg/kg/day.

And the LEL (rabbit [3]; [14])?
The LEL was 500 mg/kg/day.

And the LOAEL (rabbit [3]; [14])?
The LOAEL was 500 mg/kg/day.

And the NEL (rabbit [3]; [14])?
Its NEL is 150 mg/kg/day.

And the NOAEL (rabbit [3]; [14])?
The NOAEL was 150 mg/kg/day.

And the LEL (rabbit [3]; [15])?
Its LEL is 500 mg/kg/day.

What about the LOAEL (rabbit [3]; [15]) of the same compound?
The LOAEL was 500 mg/kg/day.

What about the NEL (rabbit [3]; [15]) of the same compound?
The NEL was 150 mg/kg/day.

What about the NOAEL (rabbit [3]; [15]) of the same compound?
Its NOAEL is 150 mg/kg/day.

What about the NEL (dog [4]; [16]) of the same compound?
Its NEL is 5 mg/kg/day.

And the NOAEL (dog [4]; [16])?
Its NOAEL is 5 mg/kg/day.

What about the LEL (dog [4]; [17]) of the same compound?
The LEL was 30 mg/kg/day.

And the LOAEL (dog [4]; [17])?
The LOAEL was 30 mg/kg/day.

What about the NEL (dog [5]; [18]) of the same compound?
Its NEL is 50 mg/kg/day.

And the NOAEL (dog [5]; [18])?
The NOAEL was 50 mg/kg/day.

And the LEL (dog [5]; [19])?
The LEL was 200 mg/kg/day.

What about the LOAEL (dog [5]; [19]) of the same compound?
Its LOAEL is 200 mg/kg/day.

What about the LOAEL (rat [6]; systemic / in life observation / clinical signs / urine, discoloration + systemic / pathology gross / lung / foci + systemic / pathology …) of the same compound?
Its LOAEL is 470 mg/kg/day.

What about the LEL (rat [6]; [20]) of the same compound?
Its LEL is 4.7 mg/kg/day.

What about the NEL (rat [6]; [20]) of the same compound?
Its NEL is under 4.7 mg/kg/day.

And the NOAEL (rat [6]; systemic / pathology gross / liver / foci + systemic / in life observation / clinical signs / urine, discoloration + systemic / pathology …)?
The NOAEL was 47 mg/kg/day.

What about the LOAEL (mouse; [21]) of the same compound?
Its LOAEL is 1230 mg/kg/day.

What about the NOAEL (mouse; [21]) of the same compound?
The NOAEL was 501 mg/kg/day.

And the LEL (mouse; [22])?
Its LEL is 11.4 mg/kg/day.

And the NEL (mouse; [22])?
The NEL was under 11.4 mg/kg/day.

What about the LEL (rat [7]) of the same compound?
The LEL was 1480 mg/kg/day.

What about the LOAEL (rat [7]) of the same compound?
The LOAEL was 1480 mg/kg/day.

And the NEL (rat [7])?
Its NEL is 373 mg/kg/day.

And the NOAEL (rat [7])?
Its NOAEL is 373 mg/kg/day.

What does the source list for CC(C)C1CCC(Cc2ccc(Cl)cc2)C1(O)Cn1cncn1 (stereo not given) [Ipconazole]?
LEL (rabbit [8]; [23]): 50 mg/kg/day; LOAEL (rabbit [8]; [23]): 50 mg/kg/day; NEL (rabbit [8]; [23]): 10 mg/kg/day; NOAEL (rabbit [8]; [23]): 10 mg/kg/day; LEL (rabbit [8]; [24]): 50 mg/kg/day; LOAEL (rabbit [8]; [24]): 50 mg/kg/day; NEL (rabbit [8]; [24]): 10 mg/kg/day; NOAEL (rabbit [8]; [24]): 10 mg/kg/day; LEL (rat [9]): 29.9 mg/kg/day; LOAEL (rat [9]): 29.9 mg/kg/day; NEL (rat [9]): 7.22 mg/kg/day; NOAEL (rat [9]): 7.22 mg/kg/day; LEL (rat [10]; [25]): 30 mg/kg/day; LOAEL (rat [10]; [25]): 30 mg/kg/day; NEL (rat [10]; [25]): 10 mg/kg/day; NOAEL (rat [10]; [25]): 10 mg/kg/day; LOAEL (rat [10]; [24]): 30 mg/kg/day; LEL (rat [10]; [26]): 30 mg/kg/day; NEL (rat [10]; [26]): 10 mg/kg/day; NOAEL (rat [10]; [26]): 10 mg/kg/day
